PMC10709440, “High-throughput ligand profile characterization in novel cell lines expressing seven heterologous insect olfactory receptors for the detection of volatile plant biomarkers” (Scientific Reports, 2023)

Experiments:
[1] = molecular target: T1, Drosophila OR98a (Drosophila melanogaster, UniProt Q9VAZ3); assay: Calcium ion fluorescence (GCaMP6) assay, OR98a stable HEK293 cell line; assay type: cell-based; conditions: for Average response: OR98a cell line, average of biological replicates, fraction of VUAA1 response; for DF norm AVERAGE OR98a: normalized fluorescence change, values below 0.05 threshold given as 0
T1 construct: expressed in transfected cells
T1 sequence (Q9VAZ3 1-397): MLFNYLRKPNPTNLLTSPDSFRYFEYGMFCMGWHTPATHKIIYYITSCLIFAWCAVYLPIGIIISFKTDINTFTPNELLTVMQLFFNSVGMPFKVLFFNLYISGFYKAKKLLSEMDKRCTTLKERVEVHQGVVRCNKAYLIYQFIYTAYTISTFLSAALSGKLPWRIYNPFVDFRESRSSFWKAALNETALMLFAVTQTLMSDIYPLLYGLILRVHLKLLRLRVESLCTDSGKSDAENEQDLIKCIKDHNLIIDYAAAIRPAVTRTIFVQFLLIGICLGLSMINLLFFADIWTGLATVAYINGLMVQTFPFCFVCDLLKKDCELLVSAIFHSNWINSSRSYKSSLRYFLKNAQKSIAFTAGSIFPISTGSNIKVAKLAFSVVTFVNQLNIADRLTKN
T1 sequence (Q9VNB5 1-486 partner): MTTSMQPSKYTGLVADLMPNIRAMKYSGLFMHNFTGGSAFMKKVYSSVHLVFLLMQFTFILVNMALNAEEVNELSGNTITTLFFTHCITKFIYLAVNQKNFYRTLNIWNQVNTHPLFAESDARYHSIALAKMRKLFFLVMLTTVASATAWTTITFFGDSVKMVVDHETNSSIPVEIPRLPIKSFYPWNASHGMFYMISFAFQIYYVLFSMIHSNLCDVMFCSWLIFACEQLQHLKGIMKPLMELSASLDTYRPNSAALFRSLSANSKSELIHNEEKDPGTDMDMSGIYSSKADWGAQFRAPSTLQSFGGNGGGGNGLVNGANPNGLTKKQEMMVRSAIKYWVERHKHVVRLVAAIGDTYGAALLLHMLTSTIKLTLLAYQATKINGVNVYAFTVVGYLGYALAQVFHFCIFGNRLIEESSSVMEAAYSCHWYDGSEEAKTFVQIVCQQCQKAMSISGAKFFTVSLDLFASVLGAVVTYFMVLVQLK
Procedure, shortened: (§1)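 HEK293 lines stably expressing each Drosophila OR with GCaMP6, doxycycline-induced (1 μg/mL) 48 or 72 h. Fluorescence recorded 5 s baseline then 30 s after VOC injection at pH 7.3; ΔF=(FMAX−F0)/F0, normalized to 50 µM VUAA1 response per line, triplicate wells averaged; concentration series 0.01–100 μM.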

[2] = molecular target: T2, Drosophila OR71a (Drosophila melanogaster, UniProt Q9VUK5); assay: Calcium ion fluorescence (GCaMP6) assay, OR71a stable HEK293 cell line; assay type: cell-based; conditions: for Average response: OR71a cell line, VUAA1-normalized response, mean of biological replicates; for DF norm AVERAGE OR71a: normalized fluorescence change, values below 0.05 threshold given as 0
T2 construct: expressed in transfected cells
T2 sequence (Q9VUK5 1-378): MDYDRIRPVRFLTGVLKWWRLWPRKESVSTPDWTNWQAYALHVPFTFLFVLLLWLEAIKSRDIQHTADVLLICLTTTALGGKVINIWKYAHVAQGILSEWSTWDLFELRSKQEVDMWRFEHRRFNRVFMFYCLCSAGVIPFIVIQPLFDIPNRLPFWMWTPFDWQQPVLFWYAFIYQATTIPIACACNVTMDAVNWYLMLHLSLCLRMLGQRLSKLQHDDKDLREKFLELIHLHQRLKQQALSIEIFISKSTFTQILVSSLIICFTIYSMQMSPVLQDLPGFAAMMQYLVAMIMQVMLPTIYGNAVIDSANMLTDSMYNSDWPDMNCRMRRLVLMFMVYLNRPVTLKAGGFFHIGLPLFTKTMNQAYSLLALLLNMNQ
T2 sequence (Q9VNB5 1-486 partner): T1 sequence (Q9VNB5 1-486 partner)
Procedure, shortened: as §1

C=C(C)[C@H]1CC=C(C)CC1 [(R)-(+)-limonene]
0: DF norm AVERAGE OR98a ([1]; concentration 1) | DF norm AVERAGE OR98a ([1]; concentration 10) | DF norm AVERAGE OR98a ([1]; concentration 100) | DF norm AVERAGE OR71a ([2]; concentration 1) | DF norm AVERAGE OR71a ([2]; concentration 10) | DF norm AVERAGE OR71a ([2]; concentration 100)
0.03: Average response ([1]; cc. 1 µM) | Average response ([1]; cc. 100 µM)
0.0368: Average response ([2]; cc. 1 µM)
0.00: OR98a response (VUAA1-normalized response) ([1]; VOC concentration 1 μM) | OR98a response (VUAA1-normalized response) ([1]; VOC concentration 10 μM) | OR98a response (VUAA1-normalized response) ([1]; VOC concentration 100 μM) | Average response ([1]; cc. 10 µM) | Average response ([2]; cc. 10 µM) | Average response ([2]; cc. 100 µM) | OR71a response (VUAA1-normalized response) ([2]; VOC concentration 1 μM) | OR71a response (VUAA1-normalized response) ([2]; VOC concentration 10 μM) | OR71a response (VUAA1-normalized response) ([2]; VOC concentration 100 μM)
